Reference: PMC11555526, “Development of 2-Aminoadenine-Based Proteolysis-Targeting Chimeras (PROTACs) as Novel Potent Degraders of Monopolar Spindle 1 and Aurora Kinases” (ACS Pharmacology & Translational Science, 2024)
Several values for one entry are separate records, joined by “and”; a condition that tells them apart may be missing. Equal entries are not always repeated. Where two headings read alike, the source gives them in different places.

Assays:
[1] = target: T1, AURKA (MV4-11^AURKA-HiBiT cells) (Homo sapiens, UniProt O14965); assay: HiBiT assay, AURKA degradation; type: cell-based; settings: for DC50: read-out: DC50 (half-maximal degradation concentration) AURKA
T1 construct: expressed in transfected cells; host or cells: MV4-11, lentiviral transduction
T1 sequence (O14965 1-403): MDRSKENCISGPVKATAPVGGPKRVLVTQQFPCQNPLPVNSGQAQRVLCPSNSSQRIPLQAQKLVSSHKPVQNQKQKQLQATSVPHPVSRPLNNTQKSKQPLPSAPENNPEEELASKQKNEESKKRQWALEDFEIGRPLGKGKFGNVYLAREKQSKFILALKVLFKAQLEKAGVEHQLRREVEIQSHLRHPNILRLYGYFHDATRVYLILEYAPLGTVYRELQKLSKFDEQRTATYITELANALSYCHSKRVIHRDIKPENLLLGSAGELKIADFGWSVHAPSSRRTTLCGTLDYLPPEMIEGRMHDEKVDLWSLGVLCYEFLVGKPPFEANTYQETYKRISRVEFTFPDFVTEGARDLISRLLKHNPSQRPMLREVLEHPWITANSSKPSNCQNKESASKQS
Procedure: (§1) The effects of the synthesized compounds on AURKA, AURKB, and TTK mitotic kinases were then assessed in cellular systems. For this, HiBiT cell lines were generated for all three mitotic kinases. A small 11 amino acid peptide fragment of luciferase (HiBiT) was fused to the coding sequence of the proteins and stably transduced in the MV4-11 cell line (MV4-11^AURKA-HiBiT, MV4-11^AURKB-HiBiT, and MV4-11^HiBiT-TTK).
(§2) The stable cell lines MV4-11^AURKA-HiBiT, MV4-11^AURKB-HiBiT, and MV4-11^HiBiT-TTK cells were generated by lentiviral infection. Lentivirus was produced using the respective HiBiT vector, plasmids psPAX2, and pMD2.G in HEK293 cells. The virus supernatant was filtered and MV4-11 cells were doubly infected with the supernatant. The cells were selected after 48 h of infection until the control cells were dead to get the stable cell line.
(§3) The cells stably expressing HiBiT-tagged protein were seeded into 96-well plates and treated with serial dilutions of compounds for the indicated time points. At the end point, the assay was performed using the Nano-Glo HiBiT Lytic Detection System (Promega) according to the manufacturer’s instruction. Luminescence was measured on a GloMax 96 Microplate Luminometer (Promega) or a Tecan Spark Multiplate reader (Tecan). DC50 was calculated using concentrations showing sigmoidal behavior with the dose–response (four parameters) equation in Prism (GraphPad).

MV4-11 cells (naive) = assay: alamarBlue cell viability assay; type: cell-based, human
Procedure: Finally, to study the effect of the compounds on cancer cell survival, MV4-11 cells were treated with various concentrations of the chimeras and the cell viability was assessed after 72 h. […] As opposed to the parent inhibitor MPS1-IN-3, its derivatives except 40 were not cytotoxic (Figure S7B, Table 5). […] In addition, most of the SF1-based derivatives affected the viability of MV4-11 cells in nanomolar concentrations (Table 5).
For the alamarBlue cell viability assay, cells were seeded in 96-well plates and treated with indicated concentrations of the compounds or vehicle. A few hours before the experimental end point (72 h, unless otherwise stated), the cells were incubated with the alamarBlue reagent. Finally, fluorescence (excitation: 550 nm and emission: 600 nm) or absorbance (570 nm with reference at 600 nm) was measured on a Tecan Spark Multiplate reader (Tecan).

[2] = target: T2, AURKB (MV4-11^AURKB-HiBiT cells) (Homo sapiens, UniProt Q96GD4); assay: HiBiT assay, AURKB degradation; type: cell-based; parameters: key to Dmax (maximal degradation) AURKB: compounds with degradation less than 15% reported as “inactive”; settings: 6 h treatment; for DC50: read-out: DC50 (half-maximal degradation concentration) AURKB
T2 construct: expressed in transfected cells; host or cells: MV4-11, lentiviral transduction (pRRL-PGK vector)
T2 sequence (Q96GD4 1-345 isoform Q96GD4-5): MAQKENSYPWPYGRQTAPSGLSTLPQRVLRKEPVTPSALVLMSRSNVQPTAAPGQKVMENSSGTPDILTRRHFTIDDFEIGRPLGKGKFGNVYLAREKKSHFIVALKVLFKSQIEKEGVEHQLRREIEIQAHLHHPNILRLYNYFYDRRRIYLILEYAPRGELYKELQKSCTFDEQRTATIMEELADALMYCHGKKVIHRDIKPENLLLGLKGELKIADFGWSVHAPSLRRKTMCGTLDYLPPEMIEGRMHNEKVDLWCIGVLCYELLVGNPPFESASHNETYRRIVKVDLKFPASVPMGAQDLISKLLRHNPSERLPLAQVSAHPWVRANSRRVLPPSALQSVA
Procedure: as §1, §2, §3

[3] = target: T3, TTK (MV4-11^HiBiT-TTK cells) (Homo sapiens, UniProt P33981); assay: HiBiT assay, TTK degradation; type: cell-based; parameters: key to Dmax (maximal degradation) TTK: compounds with degradation less than 15% reported as “inactive”; settings: for Dmax (maximal degradation) TTK / DC50 / DC50 (half-maximal degradation concentration) TTK: 6 h treatment, MV4-11^HiBiT-TTK cells; for DC50: read-out: DC50 (half-maximal degradation concentration) TTK
T3 construct: expressed in transfected cells; host or cells: MV4-11, lentiviral transduction (pRRL-PGK-HiBiT entry vector)
T3 sequence (P33981 1-857): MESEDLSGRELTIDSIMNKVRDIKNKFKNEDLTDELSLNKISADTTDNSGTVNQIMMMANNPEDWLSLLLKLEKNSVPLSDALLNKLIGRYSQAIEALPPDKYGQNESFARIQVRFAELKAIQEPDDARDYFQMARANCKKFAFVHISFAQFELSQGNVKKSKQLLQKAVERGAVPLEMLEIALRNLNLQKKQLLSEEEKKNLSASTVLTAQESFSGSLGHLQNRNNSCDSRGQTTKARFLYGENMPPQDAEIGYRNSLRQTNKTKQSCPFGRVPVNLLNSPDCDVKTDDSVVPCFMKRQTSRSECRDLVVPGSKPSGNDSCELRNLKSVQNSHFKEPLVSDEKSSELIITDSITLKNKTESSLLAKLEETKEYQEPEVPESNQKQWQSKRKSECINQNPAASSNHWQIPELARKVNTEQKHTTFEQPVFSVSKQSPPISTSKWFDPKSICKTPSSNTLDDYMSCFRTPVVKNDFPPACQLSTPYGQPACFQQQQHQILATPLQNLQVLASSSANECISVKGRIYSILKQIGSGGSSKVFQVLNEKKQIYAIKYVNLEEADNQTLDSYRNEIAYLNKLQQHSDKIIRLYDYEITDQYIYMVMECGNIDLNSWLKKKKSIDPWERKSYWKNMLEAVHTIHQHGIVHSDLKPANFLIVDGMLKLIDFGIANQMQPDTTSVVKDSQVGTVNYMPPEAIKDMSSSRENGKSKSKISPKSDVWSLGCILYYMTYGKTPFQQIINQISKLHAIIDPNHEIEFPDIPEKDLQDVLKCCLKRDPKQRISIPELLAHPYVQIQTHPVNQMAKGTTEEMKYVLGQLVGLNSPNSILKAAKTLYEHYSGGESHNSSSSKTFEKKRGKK
Procedure: as §1, §2, §3

[4] = 6 h treatment, MV4-11^AURKA-HiBiT cells
[5] = 72 h treatment, MV4-11 cells (naive), read-out: EC50 (concentration that decreases cell viability by 50%)
[6] = 72 h, MV4-11 cells, read-out: EC50 cytotoxicity

Compound	Dmax (maximal degradation) AURKA [1, 4] [%]	DC50 [1, 4] [nM]	EC50 (MV4-11 cells (naive); [5]) [nM]	Dmax (maximal degradation) AURKB [2]	DC50 [2] [nM]	Dmax (maximal degradation) TTK [3]	DC50 [3]	selectivity of AURKA degradation (DC50) relative to TTK ([1]; HiBiT, 6 h) [fold]	DC50 (half-maximal degradation concentration) AURKB [2]	DC50 (half-maximal degradation concentration) TTK [3]	EC50 (MV4-11 cells (naive); [6]) [nM]	EC50 (concentration that decreases cell viability by 50%) (MV4-11 cells (naive); 72 h treatment, MV4-11 cells (naive))	fold lower activity (DC50) against TTK in comparison to degrader 19 ([3]; HiBiT, 6 h) [fold]	DC50 (half-maximal degradation concentration) AURKA [1, 4]
O=C1CCC(N2C(=O)c3cccc(NC(=O)CCCC(=O)N4CCN(c5ccc(Nc6nc(NC7CCCCC7)c7nc[nH]c7n6)cc5)CC4)c3C2=O)C(=O)N1 (stereo not shown) [Compound 13]	68.40	94	1210	30.60%	380	27.70%	3 nM	–	–	–	–	–	–	–
CC(C)S(=O)(=O)c1ccccc1Nc1nc(Nc2ccc(N3CCN(C(=O)CCC(=O)Nc4cccc5c4C(=O)N(C4CCC(=O)NC4=O)C5=O)CC3)cc2)nc2[nH]cnc12 (stereo not shown) [Compound 15]	74.55	2.05	39	33.15%	154	35.20%	42 nM	21	–	–	–	–	–	–
O=C1CCC(N2C(=O)c3cccc(NC(=O)COCCOCC(=O)N4CCN(c5ccc(Nc6nc(NC7CCCCC7)c7nc[nH]c7n6)cc5)CC4)c3C2=O)C(=O)N1 (stereo not shown) [Compound 17]	68.90	239	506	36.10%	598	39.40%	66 nM	–	–	–	–	–	–	–
CC(C)S(=O)(=O)c1ccccc1Nc1nc(Nc2ccc(N3CCN(C(=O)COCCOCC(=O)Nc4cccc5c4C(=O)N(C4CCC(=O)NC4=O)C5=O)CC3)cc2)nc2[nH]cnc12 (stereo not shown) [Compound 18]	62.10	1260	1130	22.20%	–	inactive	–	–	– (compounds with degradation less than 25% were not calculated and reported as “–”)	– (compounds with degradation less than 25% were not calculated and reported as “–”)	–	–	–	–
O=C(CCCC(=O)Nc1cccc2c1C(=O)N(C1CCC(=O)NC1=O)C2=O)NCC(=O)N1CCN(c2ccc(Nc3nc(NC4CCCCC4)c4nc[nH]c4n3)cc2)CC1 (stereo not shown) [Compound 19]	78.80	109	1380	43.60%	570	67% and 66.50%	18 nM and 17.7 nM	–	–	–	1400	–	–	–
COc1cc(N2CCN(C(=O)CNC(=O)CCCC(=O)Nc3cccc4c3C(=O)N(C3CCC(=O)NC3=O)C4=O)CC2)ccc1Nc1nc(Nc2ccccc2S(=O)(=O)C(C)C)c2nc[nH]c2n1 (stereo not shown) [Compound 21]	59.30	56	–	inactive	–	41.90%	26 nM	–	– (compounds with degradation less than 25% were not calculated and reported as “–”)	–	–	— (compounds with decrease of cell viability less than 50% were not calculated and reported as “—”)	–	–
CN1C(=O)CCC(N2C(=O)c3cccc(NC(=O)CCCC(=O)NCC(=O)N4CCN(c5ccc(Nc6nc(NC7CCCCC7)c7nc[nH]c7n6)cc5)CC4)c3C2=O)C1=O (stereo not shown) [Compound 23]	55.25	299	697	48.30%	363	32.55%	600 nM	–	–	–	700	–	34	–
CC(C)S(=O)(=O)c1ccccc1Nc1nc(Nc2ccc(N3CCN(C(=O)CNC(=O)CCCC(=O)Nc4cccc5c4C(=O)N(C4CCC(=O)N(C)C4=O)C5=O)CC3)cc2)nc2[nH]cnc12 (stereo not shown) [Compound 24]	17.00	–	618	20.40%	–	16.95%	–	–	– (compounds with degradation less than 25% were not calculated and reported as “–”)	– (compounds with degradation less than 25% were not calculated and reported as “–”)	–	–	–	– (compounds with degradation less than 25% were not calculated and reported as “–”)
CC(C)S(=O)(=O)c1ccccc1Nc1nc(Nc2ccc(N3CCN(CC(=O)Nc4cccc5c4C(=O)N(C4CCC(=O)NC4=O)C5=O)CC3)cc2)nc2[nH]cnc12 (stereo not shown) [Compound 26]	34.80	119	57	33.40%	2690	28.90%	205 nM	–	–	–	–	–	–	–
